The target in test [1] is T1, NS3-NS4 (Hepatitis C virus genotype 1a, UniProt P27958). The test can be described thus: NS3-NS4 activity, IC50 (Example 37, Table 8). The class given is biochemical.
Test [2] has as its target T1, NS3-NS4. Briefly: cell-based. The settings on record: EC50, NS3-NS4 activity.

T1 sequence (P27958 1027-1657): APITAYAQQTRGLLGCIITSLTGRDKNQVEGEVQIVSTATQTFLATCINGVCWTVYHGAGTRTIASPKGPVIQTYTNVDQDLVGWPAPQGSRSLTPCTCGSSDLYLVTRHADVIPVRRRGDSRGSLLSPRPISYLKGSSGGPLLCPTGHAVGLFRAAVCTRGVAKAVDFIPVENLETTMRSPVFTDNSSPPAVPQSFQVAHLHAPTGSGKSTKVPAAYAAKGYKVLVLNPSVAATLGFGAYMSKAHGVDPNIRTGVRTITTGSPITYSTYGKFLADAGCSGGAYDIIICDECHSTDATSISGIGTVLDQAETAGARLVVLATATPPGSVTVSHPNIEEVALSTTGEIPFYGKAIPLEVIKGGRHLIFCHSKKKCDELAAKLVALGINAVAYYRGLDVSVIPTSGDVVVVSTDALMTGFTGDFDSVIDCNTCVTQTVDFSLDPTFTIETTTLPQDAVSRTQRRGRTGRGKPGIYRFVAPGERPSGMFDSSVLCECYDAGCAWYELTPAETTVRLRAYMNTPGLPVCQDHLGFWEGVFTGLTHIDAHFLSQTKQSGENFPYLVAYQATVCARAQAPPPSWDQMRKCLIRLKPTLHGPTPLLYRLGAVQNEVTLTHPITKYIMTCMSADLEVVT
T1 sequence (P27958 1658-1711): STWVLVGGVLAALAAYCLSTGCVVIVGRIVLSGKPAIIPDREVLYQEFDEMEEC

In test [1], `CS(=O)(=O)c1ccc(-c2csc(N[C@H]3CCCCC/C=C\[C@@H]4C[C@@]4(C(=O)NS(=O)(=O)C4CC4)NC(=O)[C@@H]4C[C@@H](OC(=O)N5Cc6cccc(F)c6C5)CN4C3=O)n2)cc1` [Compound 213] yielded an IC50 below 100 nM. In test [2], this compound showed an EC50 below 100 nM.

Regarding `O=C1N[C@]2(C(=O)NS(=O)(=O)C3CC3)C[C@H]2/C=C\CCCCC[C@H](Nc2nc(-c3ccc(F)cn3)cs2)C(=O)N2C[C@H](OC(=O)N3CCc4ccccc4C3)C[C@@H]12` [Compound 229], the half-inhibitory concentration (IC50) in test [1] is below 100 nM. This compound also had a concentration giving a half-maximal response (EC50) in test [2] below 100 nM.

`CC1(COC(=O)N[C@H]2CCCCC/C=C\[C@@H]3C[C@@]3(C(=O)NS(=O)(=O)C3CC3)NC(=O)[C@@H]3C[C@@H](OC(=O)N4Cc5cccc(F)c5C4)CN3C2=O)CC1` [Compound 435]: in test [1], the 50% inhibitory concentration (IC50) was below 100 nM. In test [2], this compound showed a concentration giving a half-maximal response (EC50) below 100 nM.

`COc1cccc(ONC(=O)[C@@]23C[C@H]2CCCCCCC[C@H](NC(=O)OC(C)(C)C)C(=O)N2C[C@H](OC(=O)N4Cc5cccc(F)c5C4)C[C@H]2C(=O)N3)c1` [Compound 801] returned a 50% inhibitory concentration (IC50) in test [1] below 100 nM. In addition, the half-maximal effective concentration (EC50) in test [2] is 1000 to 10000 nM.

In the case of `CC(C)(C)OC(=O)N[C@H]1CCCCC/C=C\[C@@H]2C[C@@]2(C(=O)NOCc2ccccc2)NC(=O)[C@@H]2C[C@@H](OC(=O)N3Cc4cccc(F)c4C3)CN2C1=O` [Compound 107], the IC50 in test [1] was below 100 nM. The EC50 in test [2] lay in the range of 1000 to 10000 nM.

Compound `Cc1csc(N[C@H]2CCCCC/C=C\[C@@H]3C[C@@]3(C(=O)NS(=O)(=O)C3CC3)NC(=O)[C@@H]3C[C@@H](OC(=O)N4Cc5cccc(F)c5C4)CN3C2=O)n1` [Compound 227] gave a half-inhibitory concentration (IC50) in test [1] below 100 nM. In addition, the 50% effective concentration (EC50) in test [2] is below 100 nM.

As for `COc1cccc(ONC(=O)[C@@]23C[C@H]2/C=C\CCCCC[C@H](NC(=O)OC(C)(C)C)C(=O)N2C[C@H](OC(=O)N4Cc5cccc(F)c5C4)C[C@H]2C(=O)N3)c1` [Compound 708], in test [1], the half-maximal inhibitory concentration (IC50) was below 100 nM. For the same compound, the EC50 in test [2] fell in the range of 1000 to 10000 nM.

`CC(C)(C)OC(=O)N[C@H]1CCCCC/C=C\[C@@H]2C[C@@]2(C(=O)NS(=O)(=O)c2cc(Cl)sc2Cl)NC(=O)[C@@H]2C[C@@H](OC(=O)N3Cc4ccccc4C3)CN2C1=O` [Compound 319] gave an IC50 in test [1] below 100 nM. In test [2], this compound gave an EC50 below 100 nM.

Take `Cc1csc(S(=O)(=O)NC(=O)[C@@]23C[C@H]2/C=C\CCCCC[C@H](NC(=O)OC(C)(C)C)C(=O)N2C[C@H](OC(=O)N4Cc5cccc(F)c5C4)C[C@H]2C(=O)N3)c1` [Compound 539]: the half-inhibitory concentration (IC50) in test [1] was below 100 nM. This compound also gave an EC50 in test [2] below 100 nM.

For the compound `Cc1cnc(N[C@H]2CCCCC/C=C\[C@@H]3C[C@@]3(C(=O)NS(=O)(=O)C3CC3)NC(=O)[C@@H]3C[C@@H](OC(=O)N4Cc5cccc(F)c5C4)CN3C2=O)s1` [Compound 226], the IC50 in test [1] was below 100 nM. This compound came in with a half-maximal effective concentration (EC50) in test [2] below 100 nM.

In turn, `CC(C)(C)OC(=O)N[C@H]1CCCCCCC[C@@H]2C[C@@]2(C(=O)NS(=O)(=O)c2ccc(Cl)cc2)NC(=O)[C@@H]2C[C@@H](OC(=O)N3Cc4cccc(F)c4C3)CN2C1=O` [Compound 604] yielded an IC50 in test [1] below 100 nM. Moreover, the EC50 in test [2] is below 100 nM.

`CC(C)(C)OC(=O)N[C@H]1CCCCC/C=C\[C@@H]2C[C@@]2(C(=O)NS(=O)(=O)Cc2ccc(C(F)(F)F)cc2)NC(=O)[C@@H]2C[C@@H](OC(=O)N3Cc4cccc(F)c4C3)CN2C1=O` [Compound 519] registered an IC50 in test [1] below 100 nM. The half-maximal effective concentration (EC50) in test [2] lay within 100 to 1000 nM.

The compound `O=C(N[C@H]1CCCCC/C=C\[C@@H]2C[C@@]2(C(=O)NS(=O)(=O)C2CC2)NC(=O)[C@@H]2C[C@@H](OC(=O)N3Cc4cccc(F)c4C3)CN2C1=O)c1ccc(Cl)cc1` [Compound 413] returned a concentration for half-maximal inhibition (IC50) in test [1] below 100 nM. Further, the EC50 in test [2] is below 100 nM.

In turn, `CC(C)(C)COC(=O)N[C@H]1CCCCC/C=C\[C@@H]2C[C@@]2(C(=O)NS(=O)(=O)C2CC2)NC(=O)[C@@H]2C[C@@H](OC(=O)N3Cc4cccc(F)c4C3)CN2C1=O` [Compound 406, (2R,6S,13aS,14aR,16aS,Z)-14a-(cyclopropylsulfonylcarbamoyl)-6-(neopentyloxycarbonylamino)-5,16-dioxo-1,2,3,5,6,7,8,9,10,11,13a,14,14a,15,16,16a-hexadecahydrocyclopropa[e]pyrrolo[1,2-a][1,4]diazacyclopentadecin-2-yl 4-fluoroisoindoline-2-carboxylate] gave a concentration for half-maximal inhibition (IC50) in test [1] below 100 nM. This compound also displayed an EC50 in test [2] below 100 nM.

Regarding `CC(C)(C)OC(=O)N[C@H]1CCCCC/C=C\[C@@H]2C[C@@]2(C(=O)NS(=O)(=O)c2ccc(C(F)(F)F)cc2)NC(=O)[C@@H]2C[C@@H](OC(=O)N3Cc4cccc(F)c4C3)CN2C1=O` [Compound 347], in test [1], the half-maximal inhibitory concentration (IC50) was below 100 nM. The compound further returned an EC50 in test [2] below 100 nM.

Consider `CC(C)(C)O[C@@H]1C[C@H]2C(=O)N[C@]3(C(=O)NS(=O)(=O)C4CC4)C[C@H]3/C=C\CCCCC[C@H](Nc3nc(-c4ccccc4)c(-c4ccccc4)s3)C(=O)N2C1` [Compound 242], for which the IC50 in test [1] was below 100 nM. This compound also showed a concentration for a half-maximal effect (EC50) in test [2] of 1000 to 10000 nM.

As for `Cc1ccc(ONC(=O)[C@@]23C[C@H]2CCCCCCC[C@H](NC(=O)OC(C)(C)C)C(=O)N2C[C@H](OC(=O)N4Cc5cccc(F)c5C4)C[C@H]2C(=O)N3)cc1` [Compound 808], in test [1], the half-maximal inhibitory concentration (IC50) is below 100 nM. In test [2], this compound yielded a 50% effective concentration (EC50) of 1000 to 10000 nM.

As to `Cc1cccc(ONC(=O)[C@@]23C[C@H]2/C=C\CCCCC[C@H](NC(=O)OC(C)(C)C)C(=O)N2C[C@H](OC(=O)N4Cc5cccc(F)c5C4)C[C@H]2C(=O)N3)c1C` [Compound 712], the concentration for half-maximal inhibition (IC50) in test [1] was below 100 nM. In addition, the concentration giving a half-maximal response (EC50) in test [2] is 1000 to 10000 nM.

Compound `CC(C)(C)OC(=O)N[C@H]1CCCCCCC[C@@H]2C[C@@]2(C(=O)NS(=O)(=O)c2ccccc2C(F)(F)F)NC(=O)[C@@H]2C[C@@H](OC(=O)N3Cc4cccc(F)c4C3)CN2C1=O` [Compound 605] returned an IC50 in test [1] below 100 nM. In test [2], this compound showed a 50% effective concentration (EC50) below 100 nM.

As for `CN(C(=O)N[C@H]1CCCCC/C=C\[C@@H]2C[C@@]2(C(=O)NS(=O)(=O)c2c(Cl)cccc2Cl)NC(=O)[C@@H]2C[C@@H](OC(=O)N3Cc4cccc(F)c4C3)CN2C1=O)C(C)(C)C` [Compound 360], the half-maximal inhibitory concentration (IC50) in test [1] was below 100 nM. For the same compound, in test [2], the concentration for a half-maximal effect (EC50) lay in the range of 100 to 1000 nM.

`CC(C)(C)OC(=O)N[C@H]1CCCCC/C=C\[C@@H]2C[C@@]2(C(=O)NS(=O)(=O)c2ccccc2C(F)(F)F)NC(=O)[C@@H]2C[C@@H](OC(=O)N3Cc4cccc(F)c4C3)CN2C1=O` [Compound 345] came in with an IC50 in test [1] below 100 nM. This compound also displayed a half-maximal effective concentration (EC50) in test [2] below 100 nM.

As for `CCCC1(S(=O)(=O)NC(=O)[C@@]23C[C@H]2CCCCCCC[C@H](NC(=O)OC(C)(C)C)C(=O)N2C[C@H](OC(=O)N4Cc5cccc(F)c5C4)C[C@H]2C(=O)N3)CC1` [Compound 651], in test [1], the 50% inhibitory concentration (IC50) was below 100 nM. In addition, in test [2], the EC50 is below 100 nM.

In turn, `CC(C)(C)OC(=O)N[C@H]1CCCCC/C=C\[C@@H]2C[C@@]2(C(=O)NS(=O)(=O)Cc2c(F)cccc2F)NC(=O)[C@@H]2C[C@@H](OC(=O)N3Cc4cccc(F)c4C3)CN2C1=O` [Compound 521] returned a 50% inhibitory concentration (IC50) in test [1] below 100 nM. This compound gave a 50% effective concentration (EC50) in test [2] below 100 nM.

As for `O=C(N[C@H]1CCCCC/C=C\[C@@H]2C[C@@]2(C(=O)NS(=O)(=O)C2CC2)NC(=O)[C@@H]2C[C@@H](OC(=O)N3Cc4cccc(F)c4C3)CN2C1=O)OCC1CC1` [Compound 434], the IC50 in test [1] was below 100 nM. The compound also showed an EC50 in test [2] below 100 nM.

On to `Cc1cccc(CS(=O)(=O)NC(=O)[C@@]23C[C@H]2/C=C\CCCCC[C@H](NC(=O)OC(C)(C)C)C(=O)N2C[C@H](OC(=O)N4Cc5cccc(F)c5C4)C[C@H]2C(=O)N3)c1` [Compound 514], for which the half-inhibitory concentration (IC50) in test [1] was below 100 nM. Further, the concentration for a half-maximal effect (EC50) in test [2] fell in the range of 100 to 1000 nM.
